Data published in PMC5727260, “The Sam-Sam interaction between Ship2 and the EphA2 receptor: design and analysis of peptide inhibitors” (Scientific Reports, 2017).
Positions of bridges follow the written chain, without caps; N, C: chain ends. Residues, ends and D or L forms follow the SMILES beside them. Chains are numbered I, II in the order given.

How the values were obtained:
[1] = biological target: T1, Ship2-Sam (Homo sapiens, UniProt O15357); experiment: SPR binding of peptides to immobilized Ship2-Sam; conditions: for SPR binding to Ship2-Sam (RUmax): RUmax at 30 and 100 µM peptide, normalized for molecular weight
T1 construct: Its C-terminal sterile alpha motif domain (Ship2-Sam); made in house; host or cells: E. coli
T1 sequence (O15357 1196-1258 limits assumed): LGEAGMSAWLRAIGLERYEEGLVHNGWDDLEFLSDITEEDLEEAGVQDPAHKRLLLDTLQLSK
Procedure: In order to investigate the interaction with Ship2-Sam, all peptides were analysed by SPR experiments (Figs 2, 3 and S5).
SPR experiments were conducted as previously reported.
SPR assays were conducted with the following parameters: (i) flow: 20 μL/min, (ii) contact time: 4.5 min; (iii) running buffer: HBS (HEPES (10 mM), NaCl (150 mM), EDTA (3 mM), pH 7.4).
Reference channel signals were subtracted as blanks and the software BIAevaluation (version 4.1, GE Healthcare) was employed to estimate kinetic and thermodynamic parameters of the complexes.

[2] = biological target: EphA2 SAM (Homo sapiens) (UniProt P29317); experiment: ITC; conditions: cited from earlier work
Chain of EphA2 SAM (Homo sapiens) (P29317 901-971): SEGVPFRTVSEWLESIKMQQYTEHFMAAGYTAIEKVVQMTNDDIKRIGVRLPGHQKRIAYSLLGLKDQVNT

| SPR binding to Ship2-Sam (RUmax) [1] | SPR sensorgrams, saturation ([1]; wider concentration range (Fig. S5b)) | Compound | Kd [2] |
| --- | --- | --- | --- |
| not able to bind Ship2-Sam |  | Ac-GHQKRIAY-NH2 [KRI] |  |
|  |  | Ship2 SAM (from UniProt O15357) | 750 nM |
| not able to bind Ship2-Sam |  | Ac-KRIAYKRIAY-NH2 [(KRI)2] |  |

| Compound | SPR binding to Ship2-Sam (RUmax) [1] | SPR sensorgrams, saturation ([1]; wider concentration range (Fig. S5b)) | Kd [2] |
| --- | --- | --- | --- |
| CC[C@H](C)[C@H](NC(=O)[C@H](CCCNC(=N)N)NC(=O)[C@H](CCCCN)NC(C)=O)C(=O)NCC(=O)N[C@H](C(=O)N[C@@H](CCCNC(=N)N)C(=O)N[C@@H](CC(C)C)C(=O)N1CCC[C@H]1C(=O)NCC(=O)N[C@@H](Cc1c[nH]cn1)C(=O)N[C@@H](CCC(N)=O)C(=O)N[C@@H](CCCCN)C(=O)N[C@@H](CCCNC(=N)N)C(=O)N[C@@H](CSSC[C@H](NC(=O)[C@H](CO)NC(C)=O)C(=O)N[C@@H](CCCCN)C(=O)N[C@@H](CCSC)C(=O)N[C@@H](CCC(N)=O)C(=O)N[C@@H](CCC(N)=O)C(N)=O)C(=O)N[C@@H](C)C(=O)N[C@@H](Cc1ccc(O)cc1)C(=O)N[C@@H](CO)C(=O)N[C@@H](CC(C)C)C(=O)N[C@@H](CC(C)C)C(=O)NCC(=O)N[C@@H](CC(C)C)C(=O)N[C@@H](CCCCN)C(=O)N[C@@H](CC(=O)O)C(=O)N[C@@H](CCC(N)=O)C(=O)N[C@H](C(N)=O)C(C)C)C(C)C [S13-SS] (I: Ac-KRIGVRLPGHQKRCAYSLLGLKDQV-NH2 / II: Ac-SCKMQQ-NH2; disulfide I:14-II:2) | significant dose-response signal variations | does not reach saturation |  |
